Measurements from US20240384350A1, “METHODS OF TREATING CANCER WITH KINASE INHIBITORS” (BOARD OF REGENTS, THE UNIVERSITY OF TEXAS SYSTEM, priority 2021, published 2024).

Tests used:
Experiment in all cases: Ba/F3 drug screening, Cell Titer Glo, IC50 Mut/WT
Assay type in all cases: cell-based
EGFR L833F = biological target: T1, EGFR L833F (Homo sapiens, UniProt P00533, L833F); details: Classical-Like, 72 hours
T1 construct: expressed in transfected cells; host or cells: Ba/F3 cells, retroviral pBabe-Puro vector

EGFR L833V = biological target: T2, EGFR L833V (Homo sapiens, UniProt P00533, L833V); details: Classical-Like, 72 hours
T2 construct: expressed in transfected cells; host or cells: Ba/F3 cells, retroviral pBabe-Puro vector
Procedure: (§1) Data represent the ratio of the IC50 value for a given TKI for cells with a classical-like EGFR mutation to the IC50 value for cells with wildtype EGFR.
(§2) Ba/F3 cell generation, drug screening, and IC50 approximations. Ba/F3 cells were obtained as a gift from Dr. Gordon Mills (MD Anderson Cancer Center), and maintained in RPMI (Sigma) containing 10% FBS, 1% penicillin/streptomycin, and 10 ng/ml recombinant mIL-3 (R&D Biosystems). To establish stable Ba/F3 cell lines, Ba/F3 cells were transduced with retroviruses containing mutant EGFR plasmids for 12-24 hours.
(§3) After 48-72 hours of transduction, 2 μg/ml puromycin (Invitrogen) was added to Ba/F3 cell lines in complete RPMI. To select for EGFR positive cell lines, cells were stained with PE-EGFR (Biolegend) and sorted by FACS. After sorting, EGFR positive cells were maintained in RPMI containing 10% FBS, 1% penicillin/streptomycin, and 1 ng/ml EGF to support cell viability. […] Shortly, cells were plated in 384-well plates (Greiner Bio-One) at 2000-3000 cells per well in technical triplicate. Seven different concentrations of TKIs or DMSO vehicle were added to reach a final volume of 40 μL per well. After 72 hours, 11 μL of Cell Titer Glo (Promega) was added to each well. Plates were incubated for a minimum of 10 minutes, and bioluminescence was determined using a FLUOstar OPTIMA plate reader (BMG LABTECH). Raw bioluminescence values were normalized to DMSO control treated cells, and values were plotted in GraphPad Prism. […] Drug screens were performed in technical triplicate on each plate and either duplicate or triplicate biological replicates.

EGFR L858R/V834L = biological target: T3, EGFR L858R/V834L (Homo sapiens, UniProt P00533, L858R/V834L); details: Classical-Like, 72 hours
T3 construct: expressed in transfected cells; host or cells: Ba/F3 cells, retroviral pBabe-Puro vector
Procedure: as §1, §2, §3

EGFR Ex19del = biological target: T4, EGFR Ex19del (Homo sapiens, UniProt P00533, DEL746-750); details: Classical-Like, 72 hours
T4 construct: expressed in transfected cells; host or cells: Ba/F3 cells, retroviral pBabe-Puro vector

EGFR L858R = biological target: T5, EGFR L858R (Homo sapiens, UniProt P00533, L858R); details: Classical-Like, 72 hours
T5 construct: expressed in transfected cells; host or cells: Ba/F3 cells, retroviral pBabe-Puro vector
Procedure: as §1, §2, §3

EGFR L858R S784F = biological target: T6, EGFR L858R S784F (Homo sapiens, UniProt P00533, L858R/S784F); details: Classical-Like, 72 hours
T6 construct: expressed in transfected cells; host or cells: Ba/F3 cells, retroviral pBabe-Puro vector (vector made by GeneScript from EGFR L858R)

EGFR L861R = biological target: T7, EGFR L861R (Homo sapiens, UniProt P00533, L861R); details: Classical-Like, 72 hours
T7 construct: expressed in transfected cells; host or cells: Ba/F3 cells, retroviral pBabe-Puro vector (vector made by GeneScript from EGFR WT)
Procedure: as §1, §2, §3

[1] = biological target: T8, EGFR L747_K754del insATSPE (Homo sapiens, UniProt P00533, DEL747-749/K754E); details: T790M-like-3S, 72 hours
T8 construct: expressed in transfected cells; host or cells: Ba/F3 cells, retroviral pBabe-Puro vector
Procedure: (§4) Data represent the ratio of the IC50 value for a given TKI for cells with a T790M-like-3S EGFR mutation to the IC50 value for cells with wildtype EGFR.
as §2
(§5) After 48-72 hours of transduction, 2 μg/ml puromycin (Invitrogen) was added to Ba/F3 cell lines in complete RPMI. To select for EGFR positive cell lines, cells were stained with PE-EGFR (Biolegend) and sorted by FACS. After sorting, EGFR positive cells were maintained in RPMI containing 10% FBS, 1% penicillin/streptomycin, and 1 ng/ml EGF to support cell viability. Drug screening was performed as previously described^41,42. Shortly, cells were plated in 384-well plates (Greiner Bio-One) at 2000-3000 cells per well in technical triplicate. Seven different concentrations of TKIs or DMSO vehicle were added to reach a final volume of 40 μL per well. After 72 hours, 11 μL of Cell Titer Glo (Promega) was added to each well. Plates were incubated for a minimum of 10 minutes, and bioluminescence was determined using a FLUOstar OPTIMA plate reader (BMG LABTECH). Raw bioluminescence values were normalized to DMSO control treated cells, and values were plotted in GraphPad Prism. […] Drug screens were performed in technical triplicate on each plate and either duplicate or triplicate biological replicates.

EGFR T790M = biological target: T9, EGFR T790M (Homo sapiens, UniProt P00533, T790M); details: T790M-like-3S, 72 hours
T9 construct: expressed in transfected cells; host or cells: Ba/F3
Procedure: as §4, §2, §5

EGFR G719S T790M = biological target: T10, EGFR G719S T790M (Homo sapiens, UniProt P00533, G719S/T790M); details: T790M-like-3S, 72 hours
T10 construct: expressed in transfected cells; host or cells: Ba/F3
Procedure: as §4, §2, §5

EGFR Ex19del T790M L718V = biological target: T11, EGFR Ex19del T790M L718V (Homo sapiens, UniProt P00533, DEL746-750/L718V/T790M); details: T790M-like-3S, 72 hours
T11 construct: expressed in transfected cells; host or cells: Ba/F3
Procedure: as §4, §2, §5

EGFR L858R T790M L718V = biological target: T12, EGFR L858R T790M L718V (Homo sapiens, UniProt P00533, L718V/L858R/T790M); details: T790M-like-3R, 72 hours
T12 construct: expressed in transfected cells; host or cells: Ba/F3
Procedure: (§6) Data represent the ratio of the IC50 value for a given TKI for cells with a T790M-like-3R EGFR mutation to the IC50 value for cells with wildtype EGFR.
as §2
(§7) After 48-72 hours of transduction, 2 μg/ml puromycin (Invitrogen) was added to Ba/F3 cell lines in complete RPMI. To select for EGFR positive cell lines, cells were stained with PE-EGFR (Biolegend) and sorted by FACS. After sorting, EGFR positive cells were maintained in RPMI containing 10% FBS, 1% penicillin/streptomycin, and 1 ng/ml EGF to support cell viability. […] Shortly, cells were plated in 384-well plates (Greiner Bio-One) at 2000-3000 cells per well in technical triplicate. Seven different concentrations of TKIs or DMSO vehicle were added to reach a final volume of 40 μL per well. After 72 hours, 11 μL of Cell Titer Glo (Promega) was added to each well. Plates were incubated for a minimum of 10 minutes, and bioluminescence was determined using a FLUOstar OPTIMA plate reader (BMG LABTECH). Raw bioluminescence values were normalized to DMSO control treated cells, and values were plotted in GraphPad Prism. […] Drug screens were performed in technical triplicate on each plate and either duplicate or triplicate biological replicates. […] Statistical differences between groups were determined by ANOVA as described in the figure legends.

EGFR Ex19del/T790M/L792H = biological target: T13, EGFR Ex19del/T790M/L792H (Homo sapiens, UniProt P00533, DEL746-750/L792H/T790M); details: T790M-like-3R, 72 hours
T13 construct: expressed in transfected cells; host or cells: Ba/F3
Procedure: as §6, §2, §7

EGFR Ex19del T790M C797S = biological target: T14, EGFR Ex19del T790M C797S (Homo sapiens, UniProt P00533, C797S/DEL746-750/T790M); details: T790M-like-3R, 72 hours
T14 construct: expressed in transfected cells; host or cells: Ba/F3
Procedure: as §6, §2, §7

EGFR E709_T710del insD = biological target: T15, EGFR E709_T710del insD (Homo sapiens, UniProt P00533, DEL709-709/T710D)
T15 construct: expressed in transfected cells; host or cells: Ba/F3
Procedure: (§8) Data represent the ratio of the IC50 value for a given TKI for cells with a PACC EGFR mutation to the IC50 value for cells with wildtype EGFR.
as §2, §5

EGFR G719S = biological target: T16, EGFR G719S (Homo sapiens, UniProt P00533, G719S)
T16 construct: expressed in transfected cells; host or cells: Ba/F3

EGFR G719A = biological target: T17, EGFR G719A (Homo sapiens, UniProt P00533, G719A)
T17 construct: expressed in transfected cells; host or cells: Ba/F3
Procedure: as §8, §2, §5

EGFR K757R = biological target: T18, EGFR K757R (Homo sapiens, UniProt P00533, K757R)
T18 construct: expressed in transfected cells; host or cells: Ba/F3

EGFR S768I V774M = biological target: T19, EGFR S768I V774M (Homo sapiens, UniProt P00533, S768I/V774M)
T19 construct: host or cells: Ba/F3
Procedure: as §8, §2, §5

EGFR R776H = biological target: T20, EGFR R776H (Homo sapiens, UniProt P00533, R776H)
T20 construct: host or cells: Ba/F3

EGFR L858R/L792H = biological target: T21, EGFR L858R/L792H (Homo sapiens, UniProt P00533, L792H/L858R)
T21 construct: expressed in transfected cells; host or cells: Ba/F3

EGFR Ex19del G796S = biological target: T22, EGFR Ex19del G796S (Homo sapiens, UniProt P00533, DEL746-750/G796S)
T22 construct: expressed in transfected cells; host or cells: Ba/F3

EGFR L858R/C797S = biological target: T23, EGFR L858R/C797S (Homo sapiens, UniProt P00533, C797S/L858R)
T23 construct: expressed in transfected cells; host or cells: Ba/F3

EGFR L858R G724S = biological target: T24, EGFR L858R G724S (Homo sapiens, UniProt P00533, G724S/L858R)
T24 construct: expressed in transfected cells; host or cells: Ba/F3 (retroviral transduction, pBabe-Puro based vectors)
Procedure: as §8, §2, §5

ratio of IC50 for cells with mutant EGFR to IC50 for cells with wildtype EGFR (Mut/WT) (EGFR L833F) | ratio of IC50 for cells with mutant EGFR to IC50 for cells with wildtype EGFR (Mut/WT) (EGFR L833V) | ratio of IC50 for cells with mutant EGFR to IC50 for cells with wildtype EGFR (Mut/WT) (EGFR L858R/V834L) | ratio of IC50 for cells with mutant EGFR to IC50 for cells with wildtype EGFR (Mut/WT) (EGFR Ex19del) | ratio of IC50 for cells with mutant EGFR to IC50 for cells with wildtype EGFR (Mut/WT) (EGFR L858R) | ratio of IC50 for cells with mutant EGFR to IC50 for cells with wildtype EGFR (Mut/WT) (EGFR L858R S784F) | ratio of IC50 for cells with mutant EGFR to IC50 for cells with wildtype EGFR (Mut/WT) (EGFR L861R) | ratio of IC50 for cells with mutant EGFR to IC50 for cells with wildtype EGFR (Mut/WT) [1] | ratio of IC50 for cells with mutant EGFR to IC50 for cells with wildtype EGFR (Mut/WT) (EGFR T790M) | ratio of IC50 for cells with mutant EGFR to IC50 for cells with wildtype EGFR (Mut/WT) (EGFR G719S T790M) | ratio of IC50 for cells with mutant EGFR to IC50 for cells with wildtype EGFR (Mut/WT) (EGFR Ex19del T790M L718V) | ratio of IC50 for cells with mutant EGFR to IC50 for cells with wildtype EGFR (Mut/WT) (EGFR L858R T790M L718V) | ratio of IC50 for cells with mutant EGFR to IC50 for cells with wildtype EGFR (Mut/WT) (EGFR Ex19del/T790M/L792H) | ratio of IC50 for cells with mutant EGFR to IC50 for cells with wildtype EGFR (Mut/WT) (EGFR Ex19del T790M C797S) | Compound | also measured
0.1249 | 0.1488 | 0.002241 | 0.0001195 | 0.00585 | 0.01546 | 0.03704 | 4.604 | 21.82 | 8.021 | 4.812 | 4.812 | 9.625 | 9.625 | COc1cc2ncnc(Nc3cccc(Cl)c3F)c2cc1OC(=O)N1CCN(C)C[C@H]1C [AZD3759] | ratio of IC50 for cells with mutant EGFR to IC50 for cells with wildtype EGFR (Mut/WT) (EGFR E709_T710del insD; PACC, E709_T710del insD, Ba/F3, 72 hours): 0.2123; ratio of IC50 for cells with mutant EGFR to IC50 for cells with wildtype EGFR (Mut/WT) (EGFR G719S; PACC, G719S, Ba/F3, 72 hours): 0.01105; ratio of IC50 for cells with mutant EGFR to IC50 for cells with wildtype EGFR (Mut/WT) (EGFR G719A; PACC, G719A, Ba/F3, 72 hours): 0.1002; ratio of IC50 for cells with mutant EGFR to IC50 for cells with wildtype EGFR (Mut/WT) (EGFR K757R; PACC, K757R, Ba/F3, 72 hours): 0.7085; ratio of IC50 for cells with mutant EGFR to IC50 for cells with wildtype EGFR (Mut/WT) (EGFR S768I V774M; PACC, S768I V774M, Ba/F3, 72 hours): 0.2555; ratio of IC50 for cells with mutant EGFR to IC50 for cells with wildtype EGFR (Mut/WT) (EGFR R776H; PACC, R776H, Ba/F3, 72 hours): 0.02185; ratio of IC50 for cells with mutant EGFR to IC50 for cells with wildtype EGFR (Mut/WT) (EGFR L858R/L792H; PACC, L858R/L792H, Ba/F3, 72 hours): 0.03125; ratio of IC50 for cells with mutant EGFR to IC50 for cells with wildtype EGFR (Mut/WT) (EGFR Ex19del G796S; PACC, Ex19del G796S, Ba/F3, 72 hours): 4.084; ratio of IC50 for cells with mutant EGFR to IC50 for cells with wildtype EGFR (Mut/WT) (EGFR L858R/C797S; PACC, L858R/C797S, Ba/F3, 72 hours): 0.001895; ratio of IC50 for cells with mutant EGFR to IC50 for cells with wildtype EGFR (Mut/WT) (EGFR L858R G724S; PACC, L858R G724S, Ba/F3, 72 hours): 0.0005419
0.0584 | 0.002739 | 0.01123 | 0.0005409 | 0.017 | 0.03577 | 0.01121 | 0.001195 | 0.1166 | 0.04811 | 0.2594 | 0.6592 | 4.292 | 5.557 | Cc1cc(C(=O)Nc2nc3cccc(Cl)c3n2[C@@H]2CCCCN(C(=O)/C=C/CN(C)C)C2)ccn1 [Nazartinib] | ratio of the IC50 value for cells with a PACC EGFR mutation to the IC50 value for cells with wildtype EGFR (EGFR E709_T710del insD; Ba/F3 cells, EGFR E709_T710del insD (PACC), Mut/WT): 0.1584; ratio of the IC50 value for cells with a PACC EGFR mutation to the IC50 value for cells with wildtype EGFR (EGFR G719S; Ba/F3 cells, EGFR G719S (PACC), Mut/WT): 0.08165; ratio of the IC50 value for cells with a PACC EGFR mutation to the IC50 value for cells with wildtype EGFR (EGFR G719A; Ba/F3 cells, EGFR G719A (PACC), Mut/WT): 0.06775; ratio of the IC50 value for cells with a PACC EGFR mutation to the IC50 value for cells with wildtype EGFR (EGFR K757R; Ba/F3 cells, EGFR K757R (PACC), Mut/WT): 0.3486; ratio of the IC50 value for cells with a PACC EGFR mutation to the IC50 value for cells with wildtype EGFR (EGFR S768I V774M; Ba/F3 cells, EGFR S768I V774M (PACC), Mut/WT): 0.09563; ratio of the IC50 value for cells with a PACC EGFR mutation to the IC50 value for cells with wildtype EGFR (EGFR R776H; Ba/F3 cells, EGFR R776H (PACC), Mut/WT): 0.03601; ratio of the IC50 value for cells with a PACC EGFR mutation to the IC50 value for cells with wildtype EGFR (EGFR L858R/L792H; Ba/F3 cells, EGFR L858R/L792H (PACC), Mut/WT): 0.3145; ratio of the IC50 value for cells with a PACC EGFR mutation to the IC50 value for cells with wildtype EGFR (EGFR Ex19del G796S; Ba/F3 cells, EGFR Ex19del G796S (PACC), Mut/WT): 0.6604; ratio of the IC50 value for cells with a PACC EGFR mutation to the IC50 value for cells with wildtype EGFR (EGFR L858R/C797S; Ba/F3 cells, EGFR L858R/C797S (PACC), Mut/WT): 3.46; ratio of the IC50 value for cells with a PACC EGFR mutation to the IC50 value for cells with wildtype EGFR (EGFR L858R G724S; Ba/F3 cells, EGFR L858R G724S (PACC), Mut/WT): 0.009244
